Patent US20210101881A1 (Ancureall Pharmaceutical (Shanghai) Co., Ltd., priority 2018, published 2021)
Read-outs that look alike come from different tables or passages of the source.

Assays:
MOLM13 cells = assay: Growth inhibition of CDK9-positive cell line MOLM13 in vitro (CCK8/MTT assay); format: cell-based, human; conditions: Homo sapiens
CDK9/CyclinK kinase = target: T1, CDK9/CyclinK kinase (Homo sapiens, UniProt P50750); assay: CDK9 protein kinase activity, ADP-Glo CDK9/CyclinK kinase detection kit; format: biochemical; conditions: read-out: IC50 of the compound for inhibiting CDK9 protein kinase activity, CDK9/CyclinK kinase
T1 construct: purchased Promega Corporation V4105
Method: Measurement of CDK9 Protein Kinase Activity
The present compound was dissolved in DMSO (Sigma Aldrich), and the initial concentration of the compound was 1000 nM. A two-fold serial dilution was carried out. The specific operation of CDK9 kinase activity determination was carried out according to the ADP-Go™ CDK9/CyclinK kinase detection experimental procedure. […] Each test sample was tested in duplicate, and the test was repeated once. The inhibitory activity (IC50) of the compound on CDK9 protein kinase was calculated from the dose-inhibition curve of the compound.

[1] = MOLM-13, read-out: IC50 of the compound for inhibiting cell growth, MOLM13 cells
[2] = MOLM-13, MOLM13 cells, cultured 3 to 6 days, CCK8, read-out: IC50 of the compound for inhibiting cell growth, MOLM13 cells

T1 sequence (P50750 whole entry): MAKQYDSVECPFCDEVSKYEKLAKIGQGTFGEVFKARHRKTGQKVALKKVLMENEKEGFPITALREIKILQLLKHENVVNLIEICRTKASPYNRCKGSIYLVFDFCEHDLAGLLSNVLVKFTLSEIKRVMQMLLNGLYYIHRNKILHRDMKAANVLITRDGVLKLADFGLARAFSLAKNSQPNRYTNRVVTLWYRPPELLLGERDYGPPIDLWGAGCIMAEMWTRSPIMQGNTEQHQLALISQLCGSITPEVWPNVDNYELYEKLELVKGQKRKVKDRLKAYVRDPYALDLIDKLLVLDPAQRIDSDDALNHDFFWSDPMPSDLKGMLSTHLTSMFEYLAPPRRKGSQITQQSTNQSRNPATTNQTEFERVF
T1 sequence (O75909 whole entry partner): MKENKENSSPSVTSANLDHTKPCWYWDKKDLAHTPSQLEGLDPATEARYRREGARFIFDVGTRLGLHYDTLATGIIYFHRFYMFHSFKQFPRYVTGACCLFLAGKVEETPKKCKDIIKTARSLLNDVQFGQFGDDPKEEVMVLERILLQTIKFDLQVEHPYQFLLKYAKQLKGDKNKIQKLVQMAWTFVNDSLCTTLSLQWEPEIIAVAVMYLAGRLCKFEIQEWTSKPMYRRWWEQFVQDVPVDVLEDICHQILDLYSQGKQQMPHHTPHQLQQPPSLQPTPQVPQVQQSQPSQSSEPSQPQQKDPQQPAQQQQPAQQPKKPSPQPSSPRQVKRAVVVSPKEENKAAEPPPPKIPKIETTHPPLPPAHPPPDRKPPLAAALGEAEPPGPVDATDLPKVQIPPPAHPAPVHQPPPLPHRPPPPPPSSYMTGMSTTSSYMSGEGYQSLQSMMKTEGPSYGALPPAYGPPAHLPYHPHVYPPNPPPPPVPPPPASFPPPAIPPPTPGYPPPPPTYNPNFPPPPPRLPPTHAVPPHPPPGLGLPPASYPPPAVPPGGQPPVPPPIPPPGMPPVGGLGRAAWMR

Structure (SMILES): Cc1cc(Nc2ncc(F)c(-n3cc(C(N)=O)c4ccccc43)n2)ccc1N1CCNCC1 [Compound 39, 1-[5-fluoro-2-(3-methyl-4-piperazin-1-yl-phenylamino)-pyrimidin-4-yl]-1H-indole-3-carboxamide]
- IC50 (MOLM13 cells; [1]): < 1 nM
- IC50 (CDK9/CyclinK kinase): 1 to 10 nM

Structure (SMILES): Cc1cc(Nc2ncc(Cl)c(-n3cc(C(N)=O)c4ccccc43)n2)ccc1N1CCNCC1 [Compound 42, 1-[5-chloro-2-(3-methyl-4-piperazin-1-yl-phenylamino)-pyrimidin-4-yl]-1H-indole-3-carboxamide]
- IC50 (MOLM13 cells; [2]): < 1 nM
- IC50 (CDK9/CyclinK kinase): 1 to 10 nM

Structure (SMILES): Cc1cc(Nc2ncc(F)c(-n3cc(C(N)=O)c4ccccc43)n2)ccc1N1CCN(C)CC1 [Compound 55, 1-{5-fluoro-2-[3-methyl-4-(4-methyl-piperazin-1-yl)-phenylamino]-pyrimidin-4-yl}-1H-indole-3-carboxamide]
- IC50 (MOLM13 cells; [2]): < 1 nM
- IC50 (CDK9/CyclinK kinase): 1 to 10 nM

Structure (SMILES): Cc1cc(Nc2ncc(Cl)c(-n3cc(C(N)=O)c4ccccc43)n2)ccc1N1CCN(C)CC1 [Compound 56, 1-{5-chloro-2-[3-methyl-4-(4-methyl-piperazin-1-yl)-phenylamino]-pyrimidin-4-yl}-1H-indole-3-carboxamide]
- IC50 (MOLM13 cells; [2]): < 1 nM
- IC50 (CDK9/CyclinK kinase): 1 to 10 nM

Structure (SMILES): Cc1cc(Nc2ncc(F)c(-n3cc(C(N)=O)c4ccccc43)n2)ccc1N(C)CCN(C)C [Compound 88, 1-(2-{4-[(2-dimethylamino-ethyl)-methyl-amino]-3-methyl-phenylamino}-5-fluoro-pyrimidin-4-yl)-1H-indole-3-carboxamide]
- IC50 (MOLM13 cells; [2]): < 1 nM
- IC50 (CDK9/CyclinK kinase): 10 to 100 nM

Structure (SMILES): Cc1cc(Nc2ncc(Cl)c(-n3cc(C(N)=O)c4ccccc43)n2)ccc1N(C)CCN(C)C [Compound 89, 1-(5-chloro-2-{4-[(2-dimethylamino-ethyl)-methyl-amino]-3-methyl-phenylamino}-pyrimidin-4-yl)-1H-indole-3-carboxamide]
- IC50 (MOLM13 cells; [2]): < 1 nM
- IC50 (CDK9/CyclinK kinase): 10 to 100 nM

Structure (SMILES): CN1CCN(c2cccc(Nc3ncc(F)c(-n4cc(C(N)=O)c5ccccc54)n3)c2)CC1 [Compound 115, 1-{5-fluoro-2-[3-(4-methyl-piperazin-1-yl)-phenylamino]-pyrimidin-4-yl}-1H-indole-3-carboxamide]
- IC50 (MOLM13 cells; [1]): < 1 nM
- IC50 (CDK9/CyclinK kinase): < 1 nM

Structure (SMILES): CCN1CCN(c2cccc(Nc3ncc(F)c(-n4cc(C(N)=O)c5cc(O)ccc54)n3)c2)CC1 [Compound 163, 1-{2-[3-(4-ethyl-piperazin-1-yl)-phenylamino]-5-fluoro-pyrimidin-4-yl}-5-hydroxy-1H-indole-3-carboxamide]
- IC50 (MOLM13 cells; [2]): < 1 nM
- IC50 (CDK9/CyclinK kinase): < 1 nM

Structure (SMILES): NC(=O)c1cn(-c2nc(Nc3cccc(N4CCN(C(=O)C5CCOCC5)CC4)c3)ncc2F)c2ccccc12 [Compound 166, 1-(5-Fluoro-2-{3-[4-(tetrahydro-pyran-4-carbonyl)-piperazin-1-yl]-phenylamino}-pyrimidin-4-yl)-1H-indole-3-carboxamide]
- IC50 (MOLM13 cells; [2]): 10 to 100 nM

Structure (SMILES): NC(=O)c1cn(-c2nc(Nc3cccc(N4CCN(C(=O)N5CCOCC5)CC4)c3)ncc2F)c2ccccc12 [Compound 167, 1-(5-fluoro-2-{3-[4-(morpholin-4-carbonyl)-piperazin-1-yl]-phenylamino}-pyrimidin-4-yl)-1H-indole-3-carboxamide]
- IC50 (MOLM13 cells; [2]): < 1 nM
- IC50 (CDK9/CyclinK kinase): < 1 nM

Structure (SMILES): CCN1CCN(c2cccc(Nc3ncc(F)c(-n4cc(C(N)=O)c5cc(OCCN6CCOCC6)ccc54)n3)c2)CC1 [Compound 168, 1-{2-[3-(4-ethyl-piperazin-1-yl)-phenylamino]-5-fluoro-pyrimidin-4-yl}-5-(2-morpholin-4-yl-ethoxy)-1H-indole-3-carboxamide]
- IC50 (MOLM13 cells; [2]): 10 to 100 nM

Structure (SMILES): NC(=O)c1cn(-c2nc(Nc3cccc(N4CCN(C(=O)C5CCCN5)CC4)c3)ncc2F)c2ccccc12 (stereo not drawn) [Compound 169, 1-(5-fluoro-2-{3-[4-(pyrrolidin-2-carbonyl)-1-piperazin-1-yl]-phenylamino}-pyrimidin-4-yl)-1H-indole-3-carboxamide]
- IC50 (MOLM13 cells; [2]): 1 to 10 nM

Structure (SMILES): NC(=O)c1cn(-c2nc(Nc3cccc(N4CCN(C(=O)C5CCOC5)CC4)c3)ncc2F)c2ccccc12 (stereo not drawn) [Compound 170, 1-(5-fluoro-2-{3-[4-(tetrahydro-furan-3-carbonyl)-piperazin-1-yl]-phenylamino}-pyrimidin-4-yl)-1H-indole-3-carboxamide]
- IC50 (MOLM13 cells; [2]): 1 to 10 nM

Structure (SMILES): NC(=O)c1cn(-c2nc(Nc3cccc(N4CCN(C(=O)C5CCCC5)CC4)c3)ncc2F)c2ccccc12 [Compound 171]
- IC50 (MOLM13 cells; [2]): 10 to 100 nM

Structure (SMILES): CNC(=O)N1CCN(c2cccc(Nc3ncc(F)c(-n4cc(C(N)=O)c5ccccc54)n3)c2)CC1 [Compound 172, 1-{5-fluoro-2-[3-(4-methylcarbamoyl-piperazin-1-yl)-phenylamino]-pyrimidin-4-yl}-1H-indole-3-carboxamide]
- IC50 (MOLM13 cells; [2]): 10 to 100 nM
